The assay addresses T1, ACSL4 (long-chain acyl-CoA synthetase 4) (Rattus norvegicus, UniProt O35547).
T1 construct: purified recombinant rat FLAG-ACSL4
Kind of assay: ACSL enzyme activity assay with […] palmitate, scintillation counting. It counts as biochemical.

Molecules are shown by their SMILES.

In general, IC50 refers to the point on the concentration scale where inhibition reaches its midpoint. A low value points to inhibition by little substance.

T1 sequence (O35547 whole entry): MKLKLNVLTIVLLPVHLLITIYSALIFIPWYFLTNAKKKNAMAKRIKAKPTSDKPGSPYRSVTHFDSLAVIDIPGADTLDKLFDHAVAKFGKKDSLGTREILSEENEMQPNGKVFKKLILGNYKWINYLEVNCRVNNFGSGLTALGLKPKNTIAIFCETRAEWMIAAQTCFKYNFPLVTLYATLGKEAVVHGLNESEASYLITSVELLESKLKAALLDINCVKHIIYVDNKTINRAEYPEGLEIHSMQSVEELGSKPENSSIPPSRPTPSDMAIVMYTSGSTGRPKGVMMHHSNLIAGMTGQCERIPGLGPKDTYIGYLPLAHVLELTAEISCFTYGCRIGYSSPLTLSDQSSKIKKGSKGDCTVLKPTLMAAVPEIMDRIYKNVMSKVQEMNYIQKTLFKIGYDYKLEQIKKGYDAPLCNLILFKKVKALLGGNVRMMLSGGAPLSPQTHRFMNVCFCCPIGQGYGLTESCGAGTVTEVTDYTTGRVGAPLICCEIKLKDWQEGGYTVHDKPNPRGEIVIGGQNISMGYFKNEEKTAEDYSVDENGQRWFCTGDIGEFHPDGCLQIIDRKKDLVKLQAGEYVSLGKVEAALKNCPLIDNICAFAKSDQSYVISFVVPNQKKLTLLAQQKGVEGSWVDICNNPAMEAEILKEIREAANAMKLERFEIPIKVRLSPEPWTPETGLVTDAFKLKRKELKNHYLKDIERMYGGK

In the case of `CCc1ccc(CCOc2ccc(C[C@H]3SC(=O)NC3=O)cc2)nc1` [PXL065], it took 2120 nM to reach half-maximal inhibition (IC50).

The compound `CCc1ccc(CCOc2ccc(CC3SC(=O)NC3=O)cc2)nc1` (racemic) [pioglitazone] displayed an IC50 of 2080 nM.

Source of the values: paper PMC9545763, “Therapeutic potential of deuterium‐stabilized (R)‐pioglitazone—PXL065—for X‐linked adrenoleukodystrophy” (Journal of Inherited Metabolic Disease, 2022).
